Reference: patent US7109193B2, “Tricyclic diazepines tocolytic oxytocin receptor antagonists” (Wyeth, priority 2001, dated 2006)

Biological target: T1, human vasopressin V1a receptor subtype (Homo sapiens, UniProt P37288)
T1 construct: host or cells: CHO cells (pZeoSV vector for the Thibonnier line)
Test: Vasopressin binding in Chinese Hamster Ovary cell membranes expressing human vasopressin V1a subtype receptors
Conditions: 100 nM, CHO cell membranes, [3H]Manning ligand, values without parentheses
Outline: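 Displacement of [3H]Manning ligand (8 nM working solution) from human V1a receptors in CHO cell membranes, 25–50 μg protein per well. Incubation ran 60 min at room temperature in 50 mM Tris-HCl pH 7.4 with protease inhibitors, followed by filtration and scintillation counting. Results are given as IC50 or percent inhibition.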

T1 sequence (P37288 whole entry): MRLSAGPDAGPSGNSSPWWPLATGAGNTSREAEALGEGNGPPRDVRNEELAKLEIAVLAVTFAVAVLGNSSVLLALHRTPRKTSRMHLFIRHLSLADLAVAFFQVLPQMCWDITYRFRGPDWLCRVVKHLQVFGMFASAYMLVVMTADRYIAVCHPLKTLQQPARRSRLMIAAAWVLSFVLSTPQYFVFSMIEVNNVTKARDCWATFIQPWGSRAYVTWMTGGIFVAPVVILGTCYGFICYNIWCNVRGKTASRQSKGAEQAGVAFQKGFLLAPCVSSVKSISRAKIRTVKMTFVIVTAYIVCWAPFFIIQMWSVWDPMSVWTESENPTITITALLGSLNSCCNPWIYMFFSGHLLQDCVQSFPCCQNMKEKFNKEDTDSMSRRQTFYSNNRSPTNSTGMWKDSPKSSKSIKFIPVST

| Structure (SMILES) | inhibition at 0.1 µM [%] |
| --- | --- |
| Cc1cc(C(=O)N2Cc3ccc(C(=O)N[C@@H](Cc4c[nH]cn4)C(N)=O)n3Cc3ccccc32)ccc1-c1ccccc1C(F)(F)F [Example 284, N-[(1S)-2-Amino-1-(1H-imidazol-4-ylmethyl)-2-oxoethyl]-10-{[2-methyl-2′-(trifluoromethyl)[1,1′-biphenyl]-4-yl]carbonyl}-10,11-dihydro-5H-pyrrolo[2,1-c][1,4]benzodiazepine-3-carboxamide] | 0 |
| CN1CCN(C(=O)c2ccc3n2Cc2ccccc2N(C(=O)c2ccc(-c4cccc5ccccc45)cc2Cl)C3)CC1 [Example 58, {10-[2-Chloro-4-(1-naphthyl)benzoyl]-10,11-dihydro-5H-pyrrolo[2,1-c][1,4]benzodiazepin-3-yl}(4-methyl-1-piperazinyl)methanone] | 5 |
| COc1cccc(-c2ccc(C(=O)N3Cc4ccc(C(=O)N5CCCN(C)CC5)n4Cc4ccccc43)cc2OC)c1 [Example 70, {10-[(2,3′-Dimethoxy[1,1′-biphenyl]-4-yl)carbonyl]-10,11-dihydro-5H-pyrrolo[2,1-c][1,4]benzodiazepin-3-yl}(4-methyl-1,4-diazepan-1-yl)methanone] | 19 |
| COc1cc(C(=O)N2Cc3ccc(C(=O)N4CCN(CCCN(C)C)CC4)n3Cc3ccccc32)ccc1-c1ccccc1C [Example 250, {4-[3-(Dimethylamino)propyl]-1-piperazinyl}{10-[(2-methoxy-2′-methyl[1,1′-biphenyl]-4-yl)carbonyl]-10,11-dihydro-5H-pyrrolo[2,1-c][1,4]benzodiazepin-3-yl}methanone] | 53 |
| COc1cc(C(=O)N2Cc3ccc(C(=O)N4CCN(C)CC4)n3Cc3ccccc32)ccc1-c1cccc2ccccc12 [Example 55, {10-[3-Methoxy-4-(1-naphthyl)benzoyl]-10,11-dihydro-5H-pyrrolo[2,1-c][1,4]benzodiazepin-3-yl}(4-methyl-1-piperazinyl)methanone] | 4 |
| Cc1ccccc1-c1ccc(C(=O)N2Cc3ccc(C(=O)NCCCN(C)C)n3Cc3ccccc32)cc1 [Example 76, N-[3-(Dimethylamino)propyl]-10-[(2′-methyl[1,1′-biphenyl]-4-yl)carbonyl]-10,11-dihydro-5H-pyrrolo[2,1-c][1,4]benzodiazepine-3-carboxamide] | 58 |
| COc1ccccc1-c1ccc(C(=O)N2Cc3ccc(C(=O)N4CCN(C)CC4)n3Cc3ccccc32)cc1C [Example 49, {10-[(2′-Methoxy-2-methyl[1,1′-biphenyl]-4-yl)carbonyl]-10,11-dihydro-5H-pyrrolo[2,1-c][1,4]benzodiazepin-3-yl}(4-methyl-1-piperazinyl)methanone] | 5 |
| COc1cc(C(=O)N2Cc3ccc(C(=O)N4CCN(CCCN(C)C)CC4)n3Cc3ccccc32)ccc1-c1cccc2ccccc12 [Example 253, {4-[3-(Dimethylamino)propyl]-1-piperazinyl}{10-[3-methoxy-4-(1-naphthyl)benzoyl]-10,11-dihydro-5H-pyrrolo[2,1-c][1,4]benzodiazepin-3-yl}methanone] | 16 |
| COc1cccc(-c2ccc(C(=O)N3Cc4ccc(C(=O)N5CCN(CCCN(C)C)CC5)n4Cc4ccccc43)cc2OC)c1 [Example 255, {10-[(2,3′-Dimethoxy[1,1′-biphenyl]-4-yl)carbonyl]-10,11-dihydro-5H-pyrrolo[2,1-c][1,4]benzodiazepin-3-yl}{4-[3-(dimethylamino)propyl]-1-piperazinyl}methanone] | 53 |
| COc1cccc(-c2ccc(C(=O)N3Cc4ccc(C(=O)N5CCCN(C)CC5)n4Cc4ccccc43)cc2C)c1 [Example 64, {10-[(3′-Methoxy-2-methyl[1,1′-biphenyl]-4-yl)carbonyl]-10,11-dihydro-5H-pyrrolo[2,1-c][1,4]benzodiazepin-3-yl}(4-methyl-1,4-diazepan-1-yl)methanone] | 13 |
| Cc1ccccc1-c1ccc(C(=O)N2Cc3ccc(C(=O)N4CCN(C)CC4)n3Cc3ccccc32)cc1 [Example 52, {10-[(2′-Methyl[1,1′-biphenyl]-4-yl)carbonyl]-10,11-dihydro-5H-pyrrolo[2,1-c][1,4]benzodiazepin-3-yl}(4-methyl-1-piperazinyl)methanone] | 54 |
| Cc1ccccc1-c1ccc(C(=O)N2Cc3ccc(C(=O)NCCCN(C)C)n3Cc3ccccc32)cc1C [Example 73, N-[3-(Dimethylamino)propyl]-10-[(2,2′-dimethyl[1,1′-biphenyl]-4-yl)carbonyl]-10,11-dihydro-5H-pyrrolo[2,1-c][1,4]benzodiazepine-3-carboxamide] | 46 |

The next lines start with the values.

| inhibition at 0.1 µM [%] | Structure (SMILES) |
| --- | --- |
| 0 | COc1cccc(-c2cc(OC)c(C(=O)N3Cc4ccc(C(=O)N[C@@H](Cc5c[nH]cn5)C(N)=O)n4Cc4ccccc43)cc2Cl)c1 [Example 287, N-[(1S)-2-Amino-1-(1H-imidazol-4-ylmethyl)-2-oxoethyl]-10-[(6-chloro-3,3′-dimethoxy[1,1′-biphenyl]-4-yl)carbonyl]-10,11-dihydro-5H-pyrrolo[2,1-c][1,4]benzodiazepine-3-carboxamide] |
| -7 | COc1cc(C(=O)N2Cc3ccc(C(=O)N4CCCN(C)CC4)n3Cc3ccccc32)ccc1-n1c(C)ccc1C [Example 307, {10-[4-(2,5-Dimethyl-1H-pyrrol-1-yl)-3-methoxybenzoyl]-10,11-dihydro-5H-pyrrolo[2,1-c][1,4]benzodiazepin-3-yl}(4-methyl-1,4-diazepan-1-yl)methanone] |
| 2 | COc1cc(C(=O)N2Cc3ccc(C(=O)n4ccnc4)n3Cc3ccccc32)ccc1-c1cccc2ccccc12 [Example 291, 1H-Imidazol-1-yl-{10-[3-methoxy-4-(1-naphthyl)benzoyl]-10,11-dihydro-5H-pyrrolo[2,1-c][1,4]benzodiazepin-3-yl}methanone] |
| 6 | COc1ccccc1-c1ccc(C(=O)N2Cc3ccc(C(=O)n4ccnc4)n3Cc3ccccc32)cc1C [Example 292, 1H-Imidazol-1-yl-{10-[(2′-methoxy-2-methyl[1,1′-biphenyl]-4-yl)carbonyl]-10,11-dihydro-5H-pyrrolo[2,1-c][1,4]benzodiazepin-3-yl}methanone] |
| 0 | COc1cc(C(=O)N2Cc3ccc(C(=O)N4CCN(CCN(C)C)CC4)n3Cc3ccccc32)ccc1-n1c(C)ccc1C [Example 316, {4-[2-(Dimethylamino)ethyl]-1-piperazinyl}{10-[4-(2,5-dimethyl-1H-pyrrol-1-yl)-3-methoxybenzoyl]-10,11-dihydro-5H-pyrrolo[2,1-c][1,4]benzodiazepin-3-yl}methanone] |
| 10 | COc1cc(C(=O)N2Cc3ccc(C(=O)N4CCN(CCN5CCOCC5)CC4)n3Cc3ccccc32)ccc1-n1c(C)ccc1C [Example 317, {10-[4-(2,5-Dimethyl-1H-pyrrol-1-yl)-3-methoxybenzoyl]-10,11-dihydro-5H-pyrrolo[2,1-c][1,4]benzodiazepin-3-yl}{4-[2-(4-morpholinyl)ethyl]-1-piperazinyl}methanone] |
| 7 | COc1cc(C(=O)N2Cc3ccc(C(=O)NCCCn4ccnc4)n3Cc3ccccc32)ccc1-n1c(C)ccc1C [Example 312, 10-[4-(2,5-Dimethyl-1H-pyrrol-1-yl)-3-methoxybenzoyl]-N-[3-(1H-imidazol-1-yl)propyl]-10,11-dihydro-5H-pyrrolo[2,1-c][1,4]benzodiazepine-3-carboxamide] |
